# Test results as given in patent US20200163984A1, “USE OF ISOVALERYL SPIRAMYCIN I, II AND/OR III IN MANUFACTURING MEDICAMENT FOR TREATING AND/OR PREVENTING TUMOR, AND MEDICAMENT” (SHENYANG FUYANG PHARMACEUTICAL TECHNOLOGY CO., LTD., priority 2017, published 2020).
# Columns and labels:
# [1] = test system: transplanted tumor of mouse Lewis lung cancer; assay: Transplanted tumor of mouse Lewis lung cancer; conditions: for Tumor Volume (mm3) (d 1) / Tumor Volume (mm3) (d30) / Relative Tumor Proliferation Rate (T/C) / Relative Tumor Volume (RTV): title prints KM mouse H22 cells; for Tumor Volume (mm3) (d30): d 30; for Body Weight (g) (d1) / Body Weight (g) (d 15): mouse, in vivo
# Procedure: Lewis lung cancer cells were cultured in a RPMI 1640 culture medium containing 10% fetal bovine serum at 37° C. in a 5% CO2 incubator. The cells in the logarithmic growth phase were subjected to trypsinization with 0.25% trypsin, then the cells were collected to be centrifugated to remove the obtained supernatant, then were washed twice with sterile normal saline. […] The Lewis cells were adjusted to 1×10^7/mL in concentration and stored in ice water. 75% ethanol was used to disinfect the skin under the right armpits of the mice, and each C57BL/6 mouse was soon inoculated subcutaneously with 0.2 ml of the cells at its right armpit.
# In the Lewis lung cancer model, the mice inoculated with the tumor were randomly divided into groups with 10 mice in each group the next day of inoculation. The groups included: a model control group, a positive drug cyclophosphamide control group (CTX, 30 mg/kg), isovaleryl spiramycin I groups with doses of 13, 26 and 52 mg/kg; isovaleryl spiramycin II groups with doses of 13, 26 and 52 mg/kg; isovaleryl spiramycin III groups with doses of 13, 26 and 52 mg/kg. Each group was continuously administered intragastrically for 15 days with a dose of 20 ml/kg.
# The tumor-bearing mice were weighed and sacrificed the next day after the last administration. The subcutaneous tumors were dissected and weighed. The average tumor weight of each group is calculated, and the tumor inhibition rate is calculated.
# Tumor inhibition rate=(1−T/C)×100%
# T: average tumor weight of the drug-administered group; C: average tumor weight of the blank control group.
# [2] = test system: transplanted tumor of human breast cancer cell MDA-MB-231; assay: MDA-MB-231 transplanted tumor in nude mice
# Procedure: Then cell concentration was adjusted to 1×10^7/ml with matrigel, then each nude mouse was inoculated subcutaneously with 0.2 ml of cells at its right armpit and recorded as the first day of inoculation. When the tumor grows to be greater than or equal to 100 mm^3, the mice were randomly divided into 11 groups with 6 mice in each group: a model group, a cyclophosphamide group, isovaleryl spiramycin I groups with doses of 25, 50 and 100 mg/kg, isovaleryl spiramycin II groups with doses of 25, 50 and 100 mg/kg, and isovaleryl spiramycin III groups with doses of 25, 50 and 100 mg/kg. Each group was continuously administered intragastrically for 30 days with a dose of 20 ml/kg. The mice were sacrificed the next day after drug withdrawal and the indicators were tested. The long diameter and short diameter of the tumor, and the body weight of each mouse were recorded every 3 days from drug administration to nude mouse sacrifice.
# The body weight of the nude mice and the long diameter (a) and short diameter (b) of the transplanted tumor were measured every 3 days, and the tumor volume (v), relative tumor volume (RTV) and relative tumor proliferation rate (T/C) are calculated respectively according to the following formulas, wherein V=a×b^2/2; RTV=V/V0 (V0 is the tumor volume before administration, V is the tumor volume before sacrifice), and T/C (%)=treatment group RTV/model control group RTV×100%.
# Each mouse was weighed and sacrificed. After the tumor was completely stripped off from the body of the mouse, the non-tumor tissues such as blood stains and fat were removed to weigh the tumor and calculate the tumor growth inhibition rate. The average tumor weight of each group of mice is used as an indicator of efficacy. Tumor growth inhibition rate (%)=(1−the average tumor weight of the treatment group/the average tumor weight of the model group)×100%.
# [3] = test system: human pancreatic cancer cell PANC-1; conditions: PANC-1, MTT, 48 hours
# Procedure: (§1) The purpose of the assay is to evaluate the in vitro cell proliferation inhibition or cytotoxic activity of a tested sample.
# (§2) MCF-7, MDA-MB-231, HepG2, A549, H460, H1299, 786-0, 769-P, U251, A172, HeLa, PC3, PANC-1, TE-1, SGC7901, and HT-29 were adherent tumor cells. The adherent tumor cells in the logarithmic growth phase were selected and digested with trypsin, then were prepared into a 4 to 5×10^4/ml cell suspension by a medium containing 10% fetal bovine serum. And the cell suspension was inoculated in a 96-well culture plate, and each well was 100 μL. The 96-well culture plate was cultured at 37° C. and 5% CO2 for 24 hours. The experimental group was replaced with a new culture medium containing different concentrations of the sample to be tested, namely, isovaleryl spiramycin I, isovaleryl spiramycin II, or isovaleryl spiramycin III, while the control group was replaced with a culture medium containing the same volume of solvent. Each group was set up with 3 parallel wells that were cultured at 37° C. and 5% CO2 for 48 hours. After the supernatant was removed, the wells were washed carefully for 3 times with PBS. And 100 μL of freshly prepared culture medium containing 0.5 mg/ml MTT was added to each well for continuous incubation for 4 hours at 37° C. After the supernatant was removed carefully, 150 μL of DMSO was added to each well, and after the material was mixed for 10 minutes with a micro-oscillator, the optical density value was measured at 492 nm with a microplate reader.
# (§3) The inhibition rate of the medicament on tumor cell growth is calculated according to the following formula:
# (§4) Tumor cell growth inhibition rate (%)=[A492 (negative control)−A492 (dosing group)]/A492 (negative control)×100%
# (§5) And the half-inhibitory concentration (IC50) of the sample is determined therefrom.
# [4] = test system: human renal clear cell adenocarcinoma cell 786-O; conditions: MTT, 48 hours
# Procedure: as §1, §2, §3, §4, §5
# [5] = test system: human breast cancer cells MCF-7; conditions: MCF-7, MTT, 48 hours
# Procedure: as §1, §2, §3, §4, §5
# [6] = test system: human prostate cancer cell PC3; conditions: PC3, MTT, 48 hours
# Procedure: as §1, §2, §3, §4, §5
# [7] = test system: human glioblastoma cell A172; conditions: A172, MTT, 48 hours
# Procedure: as §1, §2, §3, §4, §5
# [8] = MDA-MB-231, 25 mg/kg (low dose) i.g. 30 days
# [9] = MDA-MB-231, 50 mg/kg (medium dose) i.g. 30 days
# [10] = MDA-MB-231, 100 mg/kg (high dose) i.g. 30 days
structure (smiles),measurement,setting,value
"COC1C(OC(C)=O)CC(=O)OC(C)CC=CC=CC(OC2CCC(N(C)C)C(C)O2)C(C)CC(CC=O)C1OC1OC(C)C(OC2CC(C)(O)C(OC(=O)CC(C)C)C(C)O2)C(N(C)C)C1O (centres unmarked) [Isovaleryl spiramycin II, isovaleryl spiramycin II]",growth of Lewis lung cancer in mice,"[1]; 13, 26 and 52 mg/kg i.g. 15 days",significantly inhibit
same,Tumor Volume (mm3) (d 1),[1]; dose 12.5 mg/kg,104.18 ± 19.49 mm3
same,Tumor Volume (mm3) (d30),[1]; dose 12.5 mg/kg,1304.48 ± 379.51 mm3
same,Relative Tumor Proliferation Rate (T/C),[1]; dose 12.5 mg/kg,80.51
same,Relative Tumor Volume (RTV),[1]; dose 12.5 mg/kg,12.89 ± 4.69
same,Inhibition Rate (%),[1]; dose 13 mg/kg,38.67%
same,Tumor Weight,[1]; dose 13 mg/kg,0.98 ± 0.37 g
same,Tumor Volume (mm3) (d 1),[1]; dose 25 mg/kg,103.63 ± 19.46 mm3
same,Tumor Volume (mm3) (d30),[1]; dose 25 mg/kg,1119.26 ± 338.67 mm3
same,Relative Tumor Proliferation Rate (T/C),[1]; dose 25 mg/kg,68.97
same,Relative Tumor Volume (RTV),[1]; dose 25 mg/kg,11.04 ± 4.07
same,Inhibition Rate (%),[1]; dose 26 mg/kg,44.26%
same,Tumor Weight,[1]; dose 26 mg/kg,0.89 ± 0.18 g
same,Tumor Volume (mm3) (d 1),[1]; dose 50 mg/kg,103.38 ± 18.03 mm3
same,Tumor Volume (mm3) (d30),[1]; dose 50 mg/kg,798.42 ± 189.19 mm3
same,Relative Tumor Proliferation Rate (T/C),[1]; dose 50 mg/kg,48.76
same,Relative Tumor Volume (RTV),[1]; dose 50 mg/kg,7.81 ± 1.76
same,Inhibition Rate (%),[1]; dose 52 mg/kg,56.34%
same,Tumor Weight,[1]; dose 52 mg/kg,0.70 ± 0.21 g
same,Body Weight (g) (d1),[1]; 13 mg/kg,20.33 ± 0.64 g
same,Body Weight (g) (d 15),[1]; 13 mg/kg,22.17 ± 1.74 g
same,Body Weight (g) (d1),[1]; 26 mg/kg,19.62 ± 1.43 g
same,Body Weight (g) (d 15),[1]; 26 mg/kg,22.38 ± 0.96 g
same,Body Weight (g) (d1),[1]; 52 mg/kg,20.05 ± 0.67 g
same,Body Weight (g) (d 15),[1]; 52 mg/kg,22.75 ± 0.95 g
same,Inhibition Rate (tumor growth inhibition rate),[2]; [8],18.17%
same,Relative Tumor Proliferation Rate (T/C),[2]; [8],80.22%
same,Relative Tumor Volume (RTV),[2]; [8],12.53 ± 1.78
same,Tumor Volume (d 1),[2]; [8],119.72 ± 6.52 mm3
same,Tumor Volume (d 30),[2]; [8],1493.96 ± 171.49 mm3
same,Tumor Weight,[2]; [8],1.90 ± 0.31 g
same,Inhibition Rate (tumor growth inhibition rate),[2]; [9],29.66%
same,Relative Tumor Proliferation Rate (T/C),[2]; [9],58.78%
same,Relative Tumor Volume (RTV),[2]; [9],9.18 ± 2.38
same,Tumor Volume (d 1),[2]; [9],119.07 ± 3.19 mm3
same,Tumor Volume (d 30),[2]; [9],1094.89 ± 291.37 mm3
same,Tumor Weight,[2]; [9],1.63 ± 0.32 g
same,Inhibition Rate (tumor growth inhibition rate),[2]; [10],58.91%
same,Relative Tumor Proliferation Rate (T/C),[2]; [10],30.89%
same,Relative Tumor Volume (RTV),[2]; [10],6.08 ± 1.74
same,Tumor Volume (d 1),[2]; [10],115.89 ± 9.01 mm3
same,Tumor Volume (d 30),[2]; [10],700.44 ± 192.38 mm3
same,Tumor Weight,[2]; [10],0.95 ± 0.42 g
same,tumor volume and relative tumor volume compared with the model group,"[2]; MDA-MB-231, low, medium and high doses, P<0.05",significantly lower
same,mouse weight compared with the model group,"[2]; mouse, in vivo",no significant changes
same,IC50,[3],31.93 ± 0.12 µg/mL
same,IC50,[4],20.18 ± 0.86 µg/mL
same,IC50,[5],51.14 ± 2.54 µg/mL
same,IC50,[6],32.88 ± 0.53 µg/mL
same,IC50,[7],33.62 ± 0.57 µg/mL
